# Laboratory results: patent US7205295B2, “Benzoxazin-3-ones and derivatives thereof as therapeutic agents” (Warner-Lambert Company LLC, priority 2002, dated 2007)
# Tests used:
# [1] = molecular target: T1, PI3Kγ (p101/p110γ protein) (Homo sapiens, UniProt P48736); test: PI3Kγ In Vitro Kinase Assay; type: biochemical; conditions: purified recombinant p101/p110γ with G protein β1/γ2 subunits; 20 μM ATP, 25 μM PIP2; 20 minutes at room temperature
# T1 construct: HA; made in house; host or cells: Spodoptera frugiperda (Sf9) cells, baculovirus co-infection
# T1 sequence (P48736 whole entry, species assumed): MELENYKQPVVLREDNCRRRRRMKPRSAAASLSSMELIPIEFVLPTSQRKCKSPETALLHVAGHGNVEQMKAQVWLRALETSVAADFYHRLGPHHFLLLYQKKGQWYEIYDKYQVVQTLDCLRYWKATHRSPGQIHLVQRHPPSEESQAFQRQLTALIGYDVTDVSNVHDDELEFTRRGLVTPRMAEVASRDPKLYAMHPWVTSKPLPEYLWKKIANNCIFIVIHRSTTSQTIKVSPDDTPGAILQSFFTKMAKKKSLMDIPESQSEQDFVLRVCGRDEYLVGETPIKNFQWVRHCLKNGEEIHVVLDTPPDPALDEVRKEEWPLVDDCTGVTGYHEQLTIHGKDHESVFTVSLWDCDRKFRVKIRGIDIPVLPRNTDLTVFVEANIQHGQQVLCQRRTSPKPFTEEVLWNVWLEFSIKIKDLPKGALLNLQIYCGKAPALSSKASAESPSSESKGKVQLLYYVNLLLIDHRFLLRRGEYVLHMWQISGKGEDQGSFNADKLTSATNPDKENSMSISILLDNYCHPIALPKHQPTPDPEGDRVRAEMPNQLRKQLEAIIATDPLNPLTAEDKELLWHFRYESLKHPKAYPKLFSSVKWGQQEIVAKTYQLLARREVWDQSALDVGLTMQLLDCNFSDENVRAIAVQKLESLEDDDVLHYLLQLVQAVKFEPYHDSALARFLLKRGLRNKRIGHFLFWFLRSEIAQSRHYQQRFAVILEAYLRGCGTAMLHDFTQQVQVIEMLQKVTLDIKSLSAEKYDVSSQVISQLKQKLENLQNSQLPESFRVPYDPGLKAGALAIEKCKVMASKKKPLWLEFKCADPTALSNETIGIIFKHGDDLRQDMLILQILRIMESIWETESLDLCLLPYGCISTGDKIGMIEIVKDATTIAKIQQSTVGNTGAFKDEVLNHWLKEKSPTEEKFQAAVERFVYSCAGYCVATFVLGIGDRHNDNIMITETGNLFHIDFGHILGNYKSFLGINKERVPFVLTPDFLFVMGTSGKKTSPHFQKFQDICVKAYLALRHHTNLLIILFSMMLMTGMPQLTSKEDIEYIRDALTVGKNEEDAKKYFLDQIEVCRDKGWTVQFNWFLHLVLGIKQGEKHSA
# T1 sequence (Q8WYR1 whole entry partner, species assumed): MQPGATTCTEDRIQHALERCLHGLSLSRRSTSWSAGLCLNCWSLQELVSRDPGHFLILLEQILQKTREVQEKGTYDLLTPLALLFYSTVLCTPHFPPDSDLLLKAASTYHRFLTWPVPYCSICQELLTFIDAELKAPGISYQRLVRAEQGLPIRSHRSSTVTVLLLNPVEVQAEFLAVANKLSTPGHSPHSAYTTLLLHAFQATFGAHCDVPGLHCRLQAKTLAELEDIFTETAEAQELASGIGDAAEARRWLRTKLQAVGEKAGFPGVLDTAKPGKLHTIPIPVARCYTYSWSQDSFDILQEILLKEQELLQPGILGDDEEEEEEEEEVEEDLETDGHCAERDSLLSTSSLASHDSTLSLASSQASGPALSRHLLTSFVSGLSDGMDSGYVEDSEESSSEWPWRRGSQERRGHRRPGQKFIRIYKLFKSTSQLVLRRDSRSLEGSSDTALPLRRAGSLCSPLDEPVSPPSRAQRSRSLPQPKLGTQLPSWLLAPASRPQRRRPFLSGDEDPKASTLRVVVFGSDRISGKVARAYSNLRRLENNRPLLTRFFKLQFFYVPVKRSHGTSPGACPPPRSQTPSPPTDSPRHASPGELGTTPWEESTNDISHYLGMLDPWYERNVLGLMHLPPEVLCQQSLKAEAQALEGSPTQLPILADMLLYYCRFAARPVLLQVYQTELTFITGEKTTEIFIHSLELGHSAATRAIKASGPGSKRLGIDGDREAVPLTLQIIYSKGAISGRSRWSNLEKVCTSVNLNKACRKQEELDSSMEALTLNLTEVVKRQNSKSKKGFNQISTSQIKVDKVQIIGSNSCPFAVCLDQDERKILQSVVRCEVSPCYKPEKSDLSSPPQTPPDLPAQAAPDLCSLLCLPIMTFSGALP
# Outline: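 Sf9-expressed, purified human p101/p110γ (2.7 nM) was activated by Gβ1/γ2 (57.7 nM) and reacted with 20 μM ATP plus [γ-32P]ATP on PIP2 (25 μM)/PE (300 μM) micelles with 10 mM MgCl2 in HEPES buffer. Reactions ran 20 min at room temperature. Filter-captured radiolabeled PIP3 was counted by scintillation.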
IC50 [1] [nM],melting point [°C],SMILES
2,249 to 250,"O=C1NC(=S)SC1=Cc1ccc2c(c1)N(OCC1CCCCC1)C(=O)CO2 [Example 208, 4-Cyclohexylmethoxy-6-(4-oxo-2-thioxo-thiazolidin-5-ylidenemethyl)-4H-benzo[1,4]oxazin-3-.one]"
3,267 to 269,"COc1cc(CCN2C(=O)COc3ccc(C=C4SC(=S)NC4=O)cc32)cc(OC)c1 [Example 130, 4-[2-(3,5-Dimethoxy-phenyl)-ethyl]-6-(4-oxo-2-thioxo-thiazolidin-5-ylidenemethyl)-4H-benzo[1,4]oxazin-3-one]"
4,> 300,"Cc1cc(C)cc(CON2C(=O)COc3ccc(C=C4SC(=S)NC4=O)cc32)c1 [Example 89, 4-(3,5-Dimethyl-benzyloxy)-6-(4-oxo-2-thioxo-thiazolidin-5-ylidenemethyl)-4H-benzo[1,4]oxazin-3-one]"
4,> 300,"O=C1NC(=S)SC1=Cc1ccc2c(c1)N(OCc1ccccc1)C(=O)CO2 [Example 90, 4-Benzyloxy-6-(4-oxo-2-thioxo-thiazolidin-5-ylidenemethyl)-4H-benzo[1,4]oxazin-3-one]"
39,283 to 285,"CC(C)(C)c1ccc(CCN2C(=O)COc3ccc(C=C4SC(=S)NC4=O)cc32)cc1 [Example 131, 4-[2-(4-tert-Butyl-phenyl)-ethyl]-6-(4-oxo-2-thioxo-thiazolidin-5-ylidenemethyl)-4H-benzo[1,4]-oxazin-3-one]"
74,> 300,"CC(C)(C)c1cc(CON2C(=O)COc3ccc(C=C4SC(=S)NC4=O)cc32)cc(C(C)(C)C)n1 [Example 209, 4-(2,6-Di-tert-butyl-pyridin-4-ylmethoxy)-6-(4-oxo-2-thioxo-thiazolidin-5-ylidenemethyl)-4H-benzo[1,4]oxazin-3-one]"
4,267 to 269,"O=C1NC(=S)SC1=Cc1ccc2c(c1)N(CCc1ccc(Cl)c(Cl)c1)C(=O)CO2 [Example 103, 4-[2-(3,4-Dichloro-phenyl)-ethyl]-6-(4-oxo-2-thioxo-thiazolidin-5-ylidenmethyl)-4H-benzo[1,4]oxazin-3-one]"
3,233 to 236,"COc1cccc(CCN2C(=O)COc3ccc(C=C4SC(=S)NC4=O)cc32)c1 [Example 137, 4-[2-(3-Methoxy-phenyl)-ethyl]-6-(4-oxo-2-thioxo-thiazolidin-5-ylidenemethyl)-4H-1,4-benzoxazin-3-one]"
29,245 to 247,"CC(C)Oc1cc(CN2C(=O)COc3ccc(C=C4SC(=S)NC4=O)cc32)cc(OC(C)C)c1 [Example 94, 4-(3,5-Diisopropoxy-benzyl)-6-(4-oxo-2-thioxo-thiazolidin-5-ylidenemethyl)-4H-benzo[1,4]oxazin-3-one]"
225,255 to 257,"COc1ccc(C(C)(C)C)cc1CN1C(=O)COc2ccc(C=C3SC(=S)NC3=O)cc21 [Example 95, 4-(5-tert-Butyl-2-methoxy-benzyl)-6-(4-oxo-2-thioxo-thiazolidin-5-ylidenemethyl)-4H-1,4-benzoxazin-3-one]"
10,267 to 269,"Cc1ccc(CCN2C(=O)COc3ccc(C=C4SC(=S)NC4=O)cc32)cc1 [Example 138, 6-(4-Oxo-2-thioxo-thiazolidin-5-ylidenemethyl)-4-(2-p-tolyl-ethyl)-4H-1,4-benzoxazin-3-one]"
18,> 300,"Cc1ccc(C)c(CN2C(=O)COc3ccc(C=C4SC(=S)NC4=O)cc32)c1 [Example 99, 4-(2,5-Dimethyl-benzyl)-6-(4-oxo-2-thioxo-thiazolidin-5-ylidenemethyl)-4H-1,4-benzoxazin-3-one]"
670,277 to 280,"Cc1cc(C)c(C)c(CN2C(=O)COc3ccc(C=C4SC(=S)NC4=O)cc32)c1C [Example 96, 6-(4-Oxo-2-thioxo-thiazolidin-5-ylidenemethyl)-4-(2,3,5,6-tetramethyl-benzyl)-4H-1,4-benzoxazin-3-one]"
5,263 to 266,"O=C1NC(=S)SC1=Cc1ccc2c(c1)N(CCc1ccc(F)c(F)c1)C(=O)CO2 [Example 133, 4-[2-(3,4-Difluoro-phenyl)-ethyl]-6-(4-oxo-2-thioxo-thiazolidin-5-ylidenemethyl)-4H-benzo[1,4]oxazin-3-one]"
3,> 300,"O=C1NC(=S)SC1=Cc1ccc2c(c1)N(OCc1ccc(Cl)c(Cl)c1)C(=O)CO2 [Example 88, 4-(3,4-Dichloro-benzyloxy)-6-(4-oxo-2-thioxo-thiazolidin-5-ylidenemethyl)-4H-benzo[1,4]oxazin-3-one]"

# Further lines, the compound ahead of its results:
SMILES,IC50 [1] [nM],melting point [°C]
"CCN(CC)Cc1ccc(CN2C(=O)COc3c(C)cc(C=C4SC(=S)NC4=O)cc32)cc1 [Example 92, 4-(4-Diethylaminomethyl-benzyl)-8-methyl-6-(4-oxo-2-thioxo-thiazolidin-5-ylidenemethyl)-4H-benzo[1,4]oxazin-3-one]",6,250 to 252
"O=C1NC(=S)SC1=Cc1ccc2c(c1)N(CCc1ccc(Br)cc1)C(=O)CO2 [Example 102, 4-[2-(4-Bromo-phenyl)-ethyl]-6-(4-oxo-2-thioxo-thiazolidin-5-ylidenmethyl)-4H-benzo[1,4]oxazin-3-one]",2,274 to 276
"O=C1NC(=S)SC1=Cc1ccc2c(c1)N(CCc1cccc(C(F)(F)F)c1)C(=O)CO2 [Example 106, 6-(Oxo-2-thioxo-thiazolidin-5-ylidenmethyl)-4-[2-(3-trifluoromethyl-phenyl)-ethyl]-4H-benzo[1,4]oxazin-3-one]",9,241 to 243
"O=C1NC(=S)SC1=Cc1ccc2c(c1)N(CCc1ccccc1C(F)(F)F)C(=O)CO2 [Example 108, 6-(Oxo-2-thioxo-thiazolidin-5-ylidenmethyl)-4-[2-(2-trifluoromethyl-phenyl)-ethyl]-4H-benzo[1,4]oxazin-3-one]",4,283 to 286
"O=C1NC(=S)SC1=Cc1ccc2c(c1)N(CCc1cccc(Cl)c1)C(=O)CO2 [Example 135, 4-[2-(3-Chloro-phenyl)-ethyl]-6-(4-oxo-2-thioxo-thiazolidin-5-ylidenemethyl)-4H-1,4-benzoxazin-3-one]",5,280 to 282
"O=C1NC(=S)SC1=Cc1ccc2c(c1)N(CCc1ccc(Cl)cc1Cl)C(=O)CO2 [Example 105, 4-[2-(2,4-Dichloro-phenyl)-ethyl]-6-(4-oxo-2-thioxo-thiazolidin-5-ylidenmethyl)-4H-benzo[1,4]oxazin-3-one]",5,267 to 269
"CN(C)c1ccc(CCN2C(=O)COc3ccc(C=C4SC(=S)NC4=O)cc32)cc1 [Example 132, 4-[2-(4-Dimethylaniino-phenyl)-ethyl]-6-(4-oxo-2-thioxo-thiazolidin-5-ylidenemethyl)-4H-benzo[1,4]-oxazin-3-one]",12,266 to 268
"CCN(CC)Cc1ccc(CN2C(=O)COc3ccc(C=C4SC(=O)NC4=O)cc32)cc1 [Example 93, 5-[4-(4-Diethylaminomethyl-benzyl)-3-oxo-3,4-dihydro-2H-benzo[1,4]oxazin-6-ylmethylene]-thiazolidine-2,4-dione]",16,244 to 246
"O=C1NC(=S)SC1=Cc1ccc2c(c1)N(CCc1ccc(Oc3ccccc3)cc1)C(=O)CO2 [Example 129, 6-(4-Oxo-2-thioxo-thiazolidin-5-ylidenemethyl)-4-[2-(4-phenoxy-phenyl)-ethyl]-4H-1,4-benzoxazin-3-one]",49,220 to 224
"Cc1cc(C=C2SC(=S)NC2=O)cc2c1OCC(=O)N2Cc1ccc(CN2CCCCC2)cc1 [Example 91, 8-Methyl-6-(4-oxo-2-thioxo-thiazolidin-5-ylidenemethyl)-4-(4-piperidin-1-ylmethyl-benzyl)-4H-benzo[1,4]oxazin-3-one]",8,277 to 278
"O=C1NC(=S)SC1=Cc1cc(Cl)c2c(c1)N(CCc1ccc(C(F)(F)F)cc1)C(=O)CO2 [Example 107, 8-Chloro-6-(oxo-2-thioxo-thiazolidin-5-ylidenmethyl)-4-[2-(4-trifluoromethyl-phenyl)-ethyl]-4H-benzo[1,4]oxazin-3-one]",72,275 to 277
"O=C1NC(=S)SC1=Cc1ccc2c(c1)N(Cc1cccc(-c3ccncc3)c1)C(=O)CO2 [Example 114, 6-(4-Oxo-2-thioxo-thiazolidin-5-ylidenemethyl)-4-(3-pyridin-4-yl-benzyl)-4H-benzo[1,4]-oxazin-3-one]",5,297 to 299
"O=C1NC(=S)SC1=Cc1ccc2c(c1)N(CCc1ccc(Cl)cc1)C(=O)CO2 [Example 134, 4-[2-(4-Chloro-phenyl)-ethyl]-6-(4-oxo-2-thioxo-thiazolidin-5-ylidenemethyl)-4H-1,4-benzoxazin-3-one]",5,278 to 280
"O=C1NC(=S)SC1=Cc1ccc2c(c1)N(CCc1ccc(C(F)(F)F)cc1)C(=O)CO2 [Example 104, 6-(Oxo-2-thioxo-thiazolidin-5-ylidenmethyl)-4-[2-(4-trifluoromethyl-phenyl)-ethyl]-4H-benzo[1,4]oxazin-3-one]",2,253 to 255
